In patent US5284759A, “Biological production of acetal or ketal substituted benzene compounds” (Minnesota Mining and Manufacturing Company, priority 1992, dated 1994):
Values after ≈ are worked out from the molar mass of the structure shown.

Experiments:
[1] = solubility of substrates in MSB buffer; format: physicochemical
Source text: (§1) Two significant parameters of each substrate tested were toxicity and water solubility. The combined effects of those parameters will influence the maximum rate of biotransformation by the microbial culture. Methods were developed to examine the effects of substrate concentration on the rate of biotransformation and cell growth. The rates of biotransformation were apparently independent of the substrates' water solubility. For example, the solubilities of bromobenzene, acetophenone, and 1-phenyl-1,2-ethanediol in MSB buffer (at 30° C.) are approximately 400 mg/liter, 2000 mg/liter, and 5000 mg/liter, respectively. Bromobenzene, one of the least water-soluble substrates tested, was transformed to its dihydrodiol by strain F39/D at an average rate of about 20 mg/liter/hour. […] Substrate toxicity was determined by examining the growth rate of strain F39/D in the presence of the test compounds.

[2] = tested on: Pseudomonas putida strain F39/D; experiment: substrate toxicity: growth of strain F39/D in the presence of the test compounds; format: cell-based
Source text: as §1

[3] = tested on: Pseudomonas putida strain F39/D; experiment: rate of biotransformation of substrate to its dihydrodiol by strain F39/D; format: cell-based
Source text: as §1
Biotransformation preferably involves the addition of the starting substrate to an induced microbial cell suspension. The microorganisms are then allowed to grow such that the enzyme, arene 2,3-dioxygenase may act on the substrate. The induced microorganisms are prepared as described above. […]

| Structure (SMILES) | solubility in MSB buffer ([1]; msb buffer) | growth of the microbes ([2]; 400 mg/l (saturated level)) | average rate of transformation to its dihydrodiol [3] | rate of transformation compared with acetophenone or 1-phenylethanediol ([3]; relative to acetophenone or 1-phenylethanediol transformation) | solubility in MSB buffer ([1]; MSB buffer, 30° C.) | growth of the microbes ([2]; 1000 mg/l (one-half saturated level)) |
| --- | --- | --- | --- | --- | --- | --- |
| OCC(O)c1ccccc1 (stereo not shown) [1-phenyl-1,2-ethanediol] | ~5000 µg/mL (≈ 36.2 mM) |  |  |  |  |  |
| Brc1ccccc1 [bromobenzene] |  | apparently unaffected | about 20 mg/liter/hour | much greater than that of acetophenone or 1-phenylethanediol transformation | approximately 400 mg/liter |  |
| CC(=O)c1ccccc1 [acetophenone] | ~2000 µg/mL (≈ 16.6 mM) |  |  |  |  | completely inhibited |
